In ChEMBL document CHEMBL5512617, “Tackling Influenza A virus by M2 ion channel blockers: Latest progress and limitations” (Eur J Med Chem, 2024):
pEC50, pIC50: −log10 of the molar value.

Columns and labels:
[1] = target: Matrix protein 2 (Influenza A virus (A/Udorn/307/1972(H3N2)), UniProt P0DOF8, V27A)
Influenza A virus = conditions: mdck

**Q.** With `C1CCC2(CC1)CCNCC2` as the compound, how does the pIC50 [1] read?
**A.** < 3.70

**Q.** `NC1CCC2(CC1)C1CC3CC(C1)CC2C3` (stereo unspecified) was tested. Which pEC50 (Influenza A virus) did it give?
**A.** 5.74

**Q.** With `NC1CCCC2(CCCCCC2)CC1` (stereo unspecified) as the compound, how does the pIC50 [1] read?
**A.** 4.95

**Q.** `N=C(N)NC1CCC2(CC1)C1CC3CC(C1)CC2C3` (stereo unspecified) was tested. Which pIC50 [1] did it give?
**A.** 6.30

**Q.** And the pEC50 (Influenza A virus)?
**A.** < 4.52

**Q.** With `NCC1CCC2(CCCCC2)CC1` as the compound, how does the pIC50 [1] read?
**A.** 4.51

**Q.** `CC(N)C1CCC2(CCCCC2)CC1` (stereo unspecified) was tested. Which pIC50 [1] did it give?
**A.** 4.60

**Q.** How did the pIC50 [1] turn out when `NC1CSC2(SC1)C1CC3CC(C1)CC2C3` (stereo unspecified) was run?
**A.** 6.40

**Q.** What about the pEC50 (Influenza A virus) of the same compound?
**A.** 6.00

**Q.** With `NC1CCCC2(CCCCC2)CC1` (stereo unspecified) as the compound, how does the pIC50 [1] read?
**A.** 4.17

**Q.** How did the pIC50 [1] turn out when `NC1CCC2(CCCCCC2)CC1` was run?
**A.** 4.55
